Results reported in PubChem BioAssay (NCI).
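Cultured in 96-well plates, cells were exposed to test compound for 48 hours across five concentrations. TGI is the concentration that stops growth completely.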

Tests used:
Experiment in all cases: NCI tumour cell line growth inhibition, 48 h
[1] = tested on: SNB-19 CNS
[2] = tested on: HOP-92 NSCLC
[3] = tested on: CCRF-CEM leukemia
[4] = tested on: SK-OV-3 ovarian
[5] = tested on: MDA-MB-435
[6] = tested on: HCT-15 colon
[7] = tested on: TK-10 renal
[8] = tested on: NCI/ADR-RES ovarian
[9] = tested on: HT29 colon
[10] = tested on: OVCAR-4 ovarian
[11] = tested on: SF-295 CNS
[12] = tested on: HCT-116 colon
[13] = tested on: A549 NSCLC
[14] = tested on: MDA-MB-231 breast
[15] = tested on: A498 renal
[16] = tested on: UO-31 renal
[17] = tested on: SF-268 CNS
[18] = tested on: HOP-62 NSCLC
[19] = tested on: MDA-N
[20] = tested on: U251 CNS
[21] = tested on: NCI-H226 lung
[22] = tested on: UACC-62 melanoma
[23] = tested on: MOLT-4 leukemia
[24] = tested on: BT-549 breast
[25] = tested on: HL-60(TB) leukemia
[26] = tested on: SF-539 CNS
[27] = tested on: OVCAR-5 ovarian
[28] = tested on: 786-0 renal
[29] = tested on: ACHN renal
[30] = tested on: NCI-H522 lung
[31] = tested on: LOX IMVI melanoma
[32] = tested on: K-562 leukemia
[33] = tested on: SK-MEL-2 melanoma
[34] = tested on: T-47D breast
[35] = tested on: NCI-H23 lung
[36] = tested on: PC-3 prostate
[37] = tested on: MALME-3M melanoma
[38] = tested on: OVCAR-3 ovarian
[39] = tested on: SW-620 colon
[40] = tested on: IGROV1 ovarian
[41] = tested on: HS 578T breast
[42] = tested on: SN12C renal
[43] = tested on: UACC-257 melanoma
[44] = tested on: CAKI-1 renal
[45] = tested on: M14 melanoma
[46] = tested on: NCI-H460 lung
[47] = tested on: HCC-2998 colon
[48] = tested on: RXF 393 renal
[49] = tested on: SNB-75 CNS
[50] = tested on: SK-MEL-28 melanoma
[51] = tested on: MCF7 breast
[52] = tested on: DU-145 prostate
[53] = tested on: COLO 205 colon
[54] = tested on: RPMI-8226 leukemia
[55] = tested on: SK-MEL-5 melanoma
[56] = tested on: EKVX NSCLC
[57] = tested on: KM12 colon
[58] = tested on: OVCAR-8 ovarian

COc1ccc2c(c1)c(=O)c1c(NCCNCCO)ccc3c(=O)n(CCN(C)C)c(=O)n2c31
TGI [1]: 997 nM | TGI [2]: 775 nM | TGI [3]: > 100000 nM | TGI [4]: 2710 nM | TGI [5]: 305 nM | TGI [6]: 6390 nM | TGI [7]: 4530 nM | TGI [8]: 15000 nM | TGI [9]: 425 nM | TGI [10]: 511 nM | TGI [11]: 1840 nM | TGI [12]: 348 nM | TGI [13]: 3170 nM | TGI [14]: 508 nM | TGI [15]: 534 nM | TGI [16]: 1610 nM | TGI [17]: 619 nM | TGI [18]: 2400 nM | TGI [19]: 279 nM | TGI [20]: 937 nM | TGI [21]: 912 nM | TGI [22]: 293 nM | TGI [23]: > 100000 nM | TGI [24]: 2490 nM | TGI [25]: > 100000 nM | TGI [26]: 612 nM | TGI [27]: 3050 nM | TGI [28]: 892 nM | TGI [29]: 1490 nM | TGI [30]: 86.8 nM | TGI [31]: 1110 nM | TGI [32]: 333 nM | TGI [33]: 634 nM | TGI [34]: 541 nM | TGI [35]: 271 nM | TGI [36]: 624 nM | TGI [37]: 449 nM | TGI [38]: 4620 nM | TGI [39]: 5940 nM | TGI [40]: 1460 nM | TGI [41]: 581 nM | TGI [42]: 640 nM | TGI [43]: 1060 nM | TGI [44]: 2790 nM | TGI [45]: 1860 nM | TGI [46]: 266 nM | TGI [47]: 234 nM | TGI [48]: 266 nM | TGI [49]: 503 nM | TGI [50]: 1340 nM | TGI [51]: 3540 nM | TGI [52]: 310 nM | TGI [53]: 247 nM | TGI [54]: 1150 nM | TGI [55]: 598 nM | TGI [56]: 819 nM | TGI [57]: 831 nM | TGI [58]: 1160 nM

CCN1C(=O)C(=C/C=C/c2ccc(N(CC)CC)cc2)C(=O)N(CC)C1=S
TGI [1]: > 100000 nM | TGI [2]: > 100000 nM | TGI [3]: > 100000 nM | TGI [4]: > 100000 nM | TGI [5]: > 100000 nM | TGI [6]: > 100000 nM | TGI [7]: > 100000 nM | TGI [8]: > 100000 nM | TGI [9]: > 100000 nM | TGI [10]: > 100000 nM | TGI [11]: > 100000 nM | TGI [12]: > 100000 nM | TGI [13]: > 100000 nM | TGI [14]: > 100000 nM | TGI [16]: > 100000 nM | TGI [17]: > 100000 nM | TGI [18]: 50700 nM | TGI [19]: > 100000 nM | TGI [20]: > 100000 nM | TGI [21]: > 100000 nM | TGI [22]: > 100000 nM | TGI [23]: > 100000 nM | TGI [24]: > 100000 nM | TGI [25]: > 100000 nM | TGI [26]: > 100000 nM | TGI [27]: > 100000 nM | TGI [28]: > 100000 nM | TGI [29]: > 100000 nM | TGI [31]: > 100000 nM | TGI [32]: > 100000 nM | TGI [33]: > 100000 nM | TGI [34]: > 100000 nM | TGI [35]: > 100000 nM | TGI [36]: > 100000 nM | TGI [38]: 54900 nM | TGI [39]: > 100000 nM | TGI [40]: > 100000 nM | TGI [41]: > 100000 nM | TGI [42]: > 100000 nM | TGI [43]: > 100000 nM | TGI [44]: > 100000 nM | TGI [45]: > 100000 nM | TGI [46]: > 100000 nM | TGI [47]: > 100000 nM | TGI [48]: > 100000 nM | TGI [50]: > 100000 nM | TGI [51]: > 100000 nM | TGI [52]: > 100000 nM | TGI [53]: > 100000 nM | TGI [54]: > 100000 nM | TGI [55]: > 100000 nM | TGI [56]: > 100000 nM | TGI [57]: > 100000 nM | TGI [58]: > 100000 nM
